Results from PubChem BioAssay (NCI).
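Grown in 96-well plates, cells were treated for 48 hours with each compound at five concentrations. Insufficient inhibition: endpoint recorded as highest concentration tested. TGI is the concentration that stops growth completely.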

Key:
Assay in all cases: NCI-60 cell line screen, 48 h
A498 renal = test system: A498 renal
ACHN renal = test system: ACHN renal
HCC-2998 colon = test system: HCC-2998 colon
HCT-116 colon = test system: HCT-116 colon
HL-60(TB) leukemia = test system: HL-60(TB) leukemia
HS 578T breast = test system: HS 578T breast
KM12 colon = test system: KM12 colon
MDA-MB-435 = test system: MDA-MB-435
MOLT-4 leukemia = test system: MOLT-4 leukemia
NCI-H522 lung = test system: NCI-H522 lung
NCI/ADR-RES ovarian = test system: NCI/ADR-RES ovarian
OVCAR-8 ovarian = test system: OVCAR-8 ovarian
SF-295 CNS = test system: SF-295 CNS
SK-MEL-2 melanoma = test system: SK-MEL-2 melanoma
SK-MEL-5 melanoma = test system: SK-MEL-5 melanoma
SK-OV-3 ovarian = test system: SK-OV-3 ovarian
SNB-75 CNS = test system: SNB-75 CNS
UACC-257 melanoma = test system: UACC-257 melanoma
UACC-62 melanoma = test system: UACC-62 melanoma
MCF7 breast = test system: MCF7 breast

Measured: TGI

CN(C)c1ccc(NN=C2SC(=Nc3ccccc3)C(=Nc3ccccc3)S2)cc1
> 100 µM: A498 renal | ACHN renal | HCC-2998 colon | HCT-116 colon | HL-60(TB) leukemia | HS 578T breast | KM12 colon | MDA-MB-435 | MOLT-4 leukemia | NCI-H522 lung | NCI/ADR-RES ovarian | OVCAR-8 ovarian | SF-295 CNS | SK-MEL-2 melanoma | SK-MEL-5 melanoma | SK-OV-3 ovarian | SNB-75 CNS | UACC-257 melanoma | UACC-62 melanoma

COc1ccc(CC2(O)C3CC4CCC2C4C3)cc1 (centres undefined)
> 100 µM: ACHN renal | HL-60(TB) leukemia | HS 578T breast | KM12 colon | MCF7 breast | MDA-MB-435 | MOLT-4 leukemia | NCI-H522 lung | NCI/ADR-RES ovarian | OVCAR-8 ovarian | SF-295 CNS | SK-MEL-2 melanoma | SK-MEL-5 melanoma | SK-OV-3 ovarian | SNB-75 CNS | UACC-257 melanoma | UACC-62 melanoma

NC(N)=NCC[C@H](NC(=O)OCCCCCn1ccc(=O)[nH]c1=O)C(=O)O
> 100 µM: ACHN renal | HCC-2998 colon | HCT-116 colon | HL-60(TB) leukemia | HS 578T breast | KM12 colon | MCF7 breast | MDA-MB-435 | MOLT-4 leukemia | NCI/ADR-RES ovarian | OVCAR-8 ovarian | SF-295 CNS | SK-MEL-2 melanoma | SK-MEL-5 melanoma | SK-OV-3 ovarian | SNB-75 CNS | UACC-257 melanoma | UACC-62 melanoma
